This is an account of results in PMC3927924, “Bisubstrate UDP–peptide conjugates as human O-GlcNAc transferase inhibitors” (Biochemical Journal, 2014).

“Also recorded” adds a separate entry of the source. Where a SMILES comes first, the peptide text is derived from it. Where no end group is shown, it is not given here. Side-chain parts run from the residue outwards. The star is where a group is joined. Propyl(3-UDP) = O=c1ccn([C@@H]2O[C@H](COP(=O)(O)OP(=O)(O)OCCC*)[C@@H](O)[C@H]2O)c(=O)[nH]1; X1 = O=c1ccn([C@@H]2O[C@H](COP(=O)(O)OP(=O)(O)OCCCC*)[C@@H](O)[C@H]2O)c(=O)[nH]1; C3 linker = three-carbon linker from the acceptor serine to UDP; C4 linker = four-carbon linker from the acceptor serine to UDP

The target of experiment [1] is T1, SmNodC (Sinorhizobium meliloti NodC) (Rhizobium meliloti, UniProt P04341).
T1 sequence (P04341 1-426): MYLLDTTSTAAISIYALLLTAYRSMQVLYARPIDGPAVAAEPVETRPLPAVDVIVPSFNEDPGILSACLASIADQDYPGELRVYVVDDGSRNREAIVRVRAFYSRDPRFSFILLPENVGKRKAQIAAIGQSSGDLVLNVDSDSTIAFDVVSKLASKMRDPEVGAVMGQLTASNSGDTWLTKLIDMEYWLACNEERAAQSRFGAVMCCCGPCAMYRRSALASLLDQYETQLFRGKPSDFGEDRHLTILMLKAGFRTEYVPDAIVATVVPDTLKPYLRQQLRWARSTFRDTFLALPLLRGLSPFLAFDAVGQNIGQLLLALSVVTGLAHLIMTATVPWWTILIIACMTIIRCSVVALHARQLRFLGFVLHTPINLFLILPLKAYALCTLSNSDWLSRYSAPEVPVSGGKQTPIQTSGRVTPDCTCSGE
Put plainly: Coupled fluorigenic in vitro assay of GlcNAc transferase SmNodC. It counts as biochemical. Conditions: 1 mM–0.46 μM compound. As to the method:
Figure S4 The bacterial GlcNAc transferase NodC is not inhibited by goblin1 7.27–7.20 (m, 4H), 7.16 (t, J 8.2 Hz, 4H), 6.31 (d, J 8.2 Hz, 1H), Sm NodC, a GlcNAc transferase from Sinorhizobium meliloti that utilizes UDP-GlcNAc to 5.11–4.95 (m, 4H), 4.61 (dt, J 8.2, 3.0 Hz, 1H), 4.41 (dd, J 10.5, synthesize chito-oligosaccharides, was assayed to investigate the selectivity of goblin1. A 7.2 Hz, 1H), 4.31 (dd, J 10.5, 7.5 Hz, 1H), 4.24–4.14 (m, 2H), coupled ﬂuorigenic in vitro assay was performed in the presence of 1 mM–0.46 μM of goblin1, 4.10 (dq, J 11.2, 5.9 Hz, 1H), 3.92 (dd, J 9.5, 3.3 Hz, 1H), 3.79 12, 17 and UDP. The assay (details available from D. M. F. v. A. on request) relies on (dd, J 9.5, 2.9 Hz, 1H), 3.58 (dt, J 10.4, 5.4 Hz, 1H), 3.47 (dt, the elongation of 4-methylumbellifer yl-N -acetyl-β 1,4-glucosamine by the GlcNAc transferase J 9.8, 6.0 Hz, 1H), 2.37 (s, 3H), 2.35 (s, 3H), 1.8 (m, 1H), 1.7 Sm NodC, and subsequent hydrolysis of the reaction products by Aspergillus fumigatus chitinase (m, 1H), 1.60 (m, 2H); 13 C NMR (126 MHz, [2 H]chloroform) […]
4-parameter IC50 equation in the GraphPad Prism program (http://www.graphpad.com). […]
Beamline, wavelength (A˚) ID 23-1, 0.981ture was stirred for 16 h at room temperature. The reaction Space group P 321was quenched by the addition of methanol, stirred for 30 min Cell dimensions˚) 273.7, 142.6and concentrated. The residue was partitioned between ethyl […]
Resolution (A acetate and 10 % aqueous citric acid solution and the layers R merge 0.136 (0.505)were separated. The organic layer was washed successively with I /σ I 9.2 (3.1)water and a mixture of saturated NaHCO3 solution and brine.
Completeness (%) 99.2 (99.7)The aqueous layer was additionally extracted with the same Redundancy 4.3 (4.5)portion of ethyl acetate. The combined organic layer was dried and Reﬁnement ˚) 30–3.15concentrated. The residue was puriﬁed by ﬂash chromatography […]

In experiment [2] the target is hOGT. Also on record: method as in PMID 23103942. As to conditions: cited from earlier work.
The target of experiment [3] is hOGT. Also on record: method as in PMID 21258330. As to conditions: read-out: Ki for hOGT in vitro; cited from earlier work.
Experiment [4] deals with T2, hOGT-(312–1031) (Homo sapiens, UniProt O15294).
T2 construct: Reactions contained 50 nM hOGT-(312–1031) in 50 mM Tris/HCl; made in house
T2 sequence (O15294 312-1031 isoform O15294-3): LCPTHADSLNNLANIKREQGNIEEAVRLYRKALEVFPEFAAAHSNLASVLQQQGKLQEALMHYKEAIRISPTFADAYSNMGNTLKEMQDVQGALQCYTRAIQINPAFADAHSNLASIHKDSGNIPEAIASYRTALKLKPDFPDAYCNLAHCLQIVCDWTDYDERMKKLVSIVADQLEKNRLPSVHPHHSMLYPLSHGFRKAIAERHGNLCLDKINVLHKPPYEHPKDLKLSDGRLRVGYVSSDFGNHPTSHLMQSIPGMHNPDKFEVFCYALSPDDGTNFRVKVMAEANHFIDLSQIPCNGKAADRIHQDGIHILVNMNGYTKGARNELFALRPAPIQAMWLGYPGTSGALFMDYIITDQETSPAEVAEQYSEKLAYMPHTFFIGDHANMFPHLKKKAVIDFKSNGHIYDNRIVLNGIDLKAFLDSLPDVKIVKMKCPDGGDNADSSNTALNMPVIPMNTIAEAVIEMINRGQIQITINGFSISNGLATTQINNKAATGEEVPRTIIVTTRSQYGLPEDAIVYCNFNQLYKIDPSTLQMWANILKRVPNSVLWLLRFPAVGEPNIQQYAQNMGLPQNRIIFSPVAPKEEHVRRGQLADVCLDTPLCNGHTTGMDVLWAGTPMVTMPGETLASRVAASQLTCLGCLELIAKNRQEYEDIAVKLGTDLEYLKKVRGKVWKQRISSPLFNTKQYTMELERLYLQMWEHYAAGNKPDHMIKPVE
Put plainly: In vitro glycosylation of peptide substrate KKENSPAVTPVSTA by hOGT, fluorimetric UDP detection. The format is biochemical. Conditions: 10 μM peptide KKENSPAVTPVSTA, 3.2 μM UDP-GlcNAc, 50 nM hOGT. As to the method: Reactions contained 50 nM hOGT-(312–1031) in 50 mM Tris/HCl (pH 7.5), 0.1 mg/ml BSA, 10 μM sodium dithionate and 10 μM peptide (KKENSPAVTPVSTA) and various amounts of inhibitors in a total volume of 100 μl. Reaction mixtures were pre-incubated for 15 min and started by addition of UDP-GlcNAc to a final concentration of 3.2 μM. After 30 min of incubation at 22°C, assays were stopped by adding 200 μl of 25 mM Hepes (pH 7.4), 10 mM NaCl, 50% (v/v) methanol and 15 μM fluorophore, a UDP-sensitive xanthene-based Zn(II) complex prepared as described in [19, 20]. Product formation was detected fluorimetrically on a Gemini EM fluorescence microplate reader (Molecular Devices) at excitation and emission wavelengths of 485 nm and 530 nm respectively. A non-linear regression curve fit was performed with Prism.

Experiment [5] concerns the target T2, hOGT-(312–1031). Description: Biolayer interferometry binding to immobilized biotinylated hOGT-(312-1031). Conditions: 25°C. As to the method: Measurements were made on a ForteBio Octet RED384 instrument at 25°C. Biotinylated hOGT-(312–1031) was prepared at 25 μg/ml in TBS (25 mM Tris/HCl, pH 7.5, and 150 mM NaCl) buffer containing 1 mM DTT and immobilized on superstreptavidin biosensors. Free streptavidin sites were blocked by incubation with biocytin. A parallel set of superstreptavidin biosensors were prepared with biotinylated streptavidin to act as a control. The assay was carried out in 384-well plates with a sample volume of 100 μl. Inhibitor solutions were prepared from solid stocks and dissolved in assay buffer and a concentration series of 3-fold dilutions from a top concentration of 100 μM was created. Cycles for analysis involved obtaining a 30 s baseline followed by a 60 s association step and a 120 s dissociation step. The assay was repeated with the reference biosensors to correct for non-specific interactions and the entire assay was repeated in triplicate for both compounds. Data were processed and kinetic parameters were calculated using ForteBio software.

Experiment [6] deals with T2, hOGT-(312–1031). Description: In vitro glycosylation of hTAB1 by hOGT, Western blot with TAB1-gSer395 antibody and densitometry. The format is biochemical. Conditions: 1 μM TAB1-(7–402), 10 μM UDP-GlcNAc, Western blot densitometric quantification; read-out: IC50, O-GlcNAcylation of substrate protein TAB1. As to the method:
Reaction mixtures containing 1 μM TAB1-(7–402) protein [TAB1 is TGF (transforming growth factor)-β-activated kinase-binding protein 1] (purified as described previously), 0.125 μM hOGT-(312–1031) and 10 μM UDP-GlcNAc in a buffer of 50 mM Tris/HCl (pH 7.5) and 1 mM DTT were incubated at 37°C for 90 min, separated by SDS/PAGE (10% gels) and transferred on to nitrocellulose membranes. Membranes were probed with a TAB1-gSer^395 (O-GlcNAcylated Ser^395) O-GlcNAc site-specific antibody, followed by an IR800-labelled secondary antibody and analysed using a LI-COR Odyssey scanner and associated quantification software. Data were fitted to a four-parameter equation for dose-dependent inhibition using GraphPad Prism 5.0.

For experiment [7], the target named is T3, goblin1 (UDP-peptide conjugate 14a).
T3 chain: VTPVS([C3 linker-UDP])TA-NH2
Description: biolayer interferometry.

The target in experiment [8] is T4, goblin2 (UDP-peptide conjugate 14b).
T4 chain: VTPVS([C4 linker-UDP])TA-NH2
Put plainly: biolayer interferometry.

On to `O=c1ccn([C@@H]2O[C@H](COP(=O)(O)OP(=O)(O)O)[C@@H](O)[C@H]2O)c(=O)[nH]1` [UDP, reference compound], for which, in experiment [1], the IC50 amounted to 90 µM. For the same molecule, the Kd in experiment [2] was 0.5 µM.

Turning to `CC(=O)N[C@@H]1[C@@H](O)[C@H](O)[C@@H](CO)S[C@@H]1OP(=O)(O)OP(=O)(O)OC[C@H]1O[C@@H](n2ccc(=O)[nH]c2=O)[C@H](O)[C@@H]1O` [UDP-5S-GlcNAc], the Ki in experiment [3] was 8 µM.

Turning to `CC(=O)N[C@H]1[C@@H](OP(=O)(O)OP(=O)(O)OC[C@H]2O[C@@H](n3ccc(=O)[nH]c3=O)[C@H](O)[C@@H]2O)O[C@H](CO)[C@@H](O)[C@@H]1O` [UDP-GlcNAc], the “fold higher Kd than for UDP” value in experiment [2] (biophysical determination) is 30 fold.

Molecule `COCCCOP(=O)(O)OP(=O)(O)OC[C@H]1O[C@@H](n2ccc(=O)[nH]c2=O)[C@H](O)[C@@H]1O` [compound 17] showed an IC50 in experiment [4] of 300 µM. The “SmNodC inhibition” value in experiment [1] was “not inhibited”.

In turn, `CC(=O)N[C@H](C(=O)N[C@H](C(=O)N1CCC[C@H]1C(=O)N[C@H](C(=O)N[C@@H](COCCCOP(=O)(O)OP(=O)(O)OC[C@H]1O[C@@H](n2ccc(=O)[nH]c2=O)[C@H](O)[C@@H]1O)C(=O)N[C@H](C(=O)N[C@@H](C)C(N)=O)[C@@H](C)O)C(C)C)[C@@H](C)O)C(C)C` [goblin1] (Ac-VTPVS(Propyl(3-UDP))TA-NH2) registered a Kd in experiment [5] of 7.9 µM. The IC50 was 18 µM in experiment [4] and 8 µM in experiment [6]. For the same molecule, the “SmNodC inhibition” value in experiment [1] was “not an inhibitor; also recorded: not inhibited”.

`CC(=O)N[C@H](C(=O)N[C@H](C(=O)N1CCC[C@H]1C(=O)N[C@H](C(=O)N[C@@H](COCCCCOP(=O)(O)OP(=O)(O)OC[C@H]1O[C@@H](n2ccc(=O)[nH]c2=O)[C@H](O)[C@@H]1O)C(=O)N[C@H](C(=O)N[C@@H](C)C(N)=O)[C@@H](C)O)C(C)C)[C@@H](C)O)C(C)C` [goblin2] (Ac-VTPVS(X1)TA-NH2) gave a Kd in experiment [5] of 4.9 µM. Further, the midpoint of inhibition in experiment [4], the IC50, lay at 40 µM.

B1: O-GlcNAc transferase (hOGT) 312-1031 (protein)
chain: AEDCYNTALRLCPTHADSLNNLANIKREQGNIEEAVRLYRKALEVFPEFAAAHSNLASVLQQQGKLQEALMHYKEAIRISPTFADAYSNMGNTLKEMQDVQGALQCYTRAIQINPAFADAHSNLASIHKDSGNIPEAIASYRTALKLKPDFPDAYCNLAHCLQIVCDWTDYDERMKKLVSIVADQLEKNRLPSVHPHHSMLYPLSHGFRKAIAERHGNLCLDKINVLHKPPYEHPKDLKLSDGRLRVGYVSSDFGNHPTSHLMQSIPGMHNPDKFEVFCYALSPDDGTNFRVKVMAEANHFIDLSQIPCNGKAADRIHQDGIHILVNMNGYTKGARNELFALRPAPIQAMWLGYPGTSGALFMDYIITDQETSPAEVAEQYSEKLAYMPHTFFIGDHANMFPHLKKKAVIDFKSNGHIYDNRIVLNGIDLKAFLDSLPDVKIVKMKCPDGGDNADSSNTALNMPVIPMNTIAEAVIEMINRGQIQITINGFSISNGLATTQINNKAATGEEVPRTIIVTTRSQYGLPEDAIVYCNFNQLYKIDPSTLQMWANILKRVPNSVLWLLRFPAVGEPNIQQYAQNMGLPQNRIIFSPVAPKEEHVRRGQLADVCLDTPLCNGHTTGMDVLWAGTPMVTMPGETLASRVAASQLTCLGCLELIAKNRQEYEDIAVKLGTDLEYLKKVRGKVWKQRISSPLFNTKQYTMELERLYLQMWEHYAAGN
On to B1, for which the equilibrium dissociation constant (Kd) was 7.9 µM in experiment [7] and 4.9 µM in experiment [8].
